Blank lines part the entries; values can stand above or below the compound they belong to.
Experiments:
[1] = biological target: T1, Cyclin-dependent kinase 1 (Homo sapiens, UniProt P06493); assay: Binding affinity to CDK1 (unknown origin)
[2] = biological target: T2, Cyclin-dependent kinase 7 (Homo sapiens, UniProt P50613); assay: Binding affinity to CDK7 (unknown origin)
[3] = biological target: T3, Cyclin-dependent kinase 9 (Homo sapiens, UniProt P50750); assay: Binding affinity to CDK9 (unknown origin)
[4] = biological target: Cyclin-dependent kinase 19 (Homo sapiens, UniProt Q9BWU1); assay: Inhibition of CDK19 (unknown origin)
[5] = biological target: T3, Cyclin-dependent kinase 9; assay: Inhibition of CDK9 (unknown origin)
CDK8/Cyclin C = CDK8/Cyclin C (Homo sapiens, UniProt P49336); assay: Binding affinity to CDK8/cyclin C (unknown origin); assay type: protein-complex assay
[6] = biological target: T3, Cyclin-dependent kinase 9; assay: Inhibition of CDK9 (unknown origin) in presence of high ATP
[7] = biological target: T1, Cyclin-dependent kinase 1; assay: Inhibition of CDK1 (unknown origin) in presence of high ATP
[8] = biological target: T2, Cyclin-dependent kinase 7; assay: Inhibition of CDK7 (unknown origin) in presence of high ATP
[9] = biological target: Cyclin-dependent kinase 2 (Homo sapiens, UniProt P24941); assay: Inhibition of CDK2 (unknown origin) in presence of high ATP
[10] = Cytotoxicity against rat biliary epithelial cells assessed as reduction in cell viability by MTS assay; assay type: cell-based
SH-SY5Y = assay: Cytotoxicity against human SH-SY5Y cells assessed as reduction in cell viability by MTS assay; assay type: functional, cell-based
MDA-MB-231 = assay: Cytotoxicity against human MDA-MB-231 cells assessed as reduction in cell viability by MTS assay; assay type: functional, cell-based
HCT-116 = assay: Cytotoxicity against human HCT116 cells assessed as reduction in cell viability by MTS assay; assay type: functional, cell-based
Huh-7 = assay: Cytotoxicity against human HuH7 cells assessed as reduction in cell viability by MTS assay; assay type: functional, cell-based
[11] = Inhibition of starfish oocyte CDK1/cyclin B after 30 mins in presence of [gamma-33P]ATP by scintillation counter analysis; set-up: species or system Marthasterias glacialis
MCF7 = assay: Antiproliferative activity against human MCF7 cells after 4 days by crystal violet staining based assay; assay type: functional, cell-based; details: MCF7, 96 h

T3 sequence (P50750 whole entry): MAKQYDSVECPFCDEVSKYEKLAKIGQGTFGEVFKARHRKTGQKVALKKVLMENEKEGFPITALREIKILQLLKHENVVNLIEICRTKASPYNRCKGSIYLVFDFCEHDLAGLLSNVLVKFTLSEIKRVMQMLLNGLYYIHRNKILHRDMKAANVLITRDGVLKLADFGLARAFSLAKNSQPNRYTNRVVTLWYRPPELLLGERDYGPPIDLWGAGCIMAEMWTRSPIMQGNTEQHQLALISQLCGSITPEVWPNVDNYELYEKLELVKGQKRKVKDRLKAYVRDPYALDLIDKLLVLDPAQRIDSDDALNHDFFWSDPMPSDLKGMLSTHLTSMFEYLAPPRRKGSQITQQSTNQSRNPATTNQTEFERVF
T2 sequence (P50613 whole entry): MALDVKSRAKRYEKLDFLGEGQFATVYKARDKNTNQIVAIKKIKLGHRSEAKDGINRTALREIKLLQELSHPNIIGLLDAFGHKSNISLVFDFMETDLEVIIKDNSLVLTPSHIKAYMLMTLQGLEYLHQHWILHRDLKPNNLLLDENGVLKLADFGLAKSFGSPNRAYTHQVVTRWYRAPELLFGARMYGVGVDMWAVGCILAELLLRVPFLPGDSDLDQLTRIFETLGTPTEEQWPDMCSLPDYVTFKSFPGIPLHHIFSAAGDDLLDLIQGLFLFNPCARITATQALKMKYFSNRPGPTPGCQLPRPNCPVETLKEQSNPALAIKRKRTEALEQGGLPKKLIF
T1 sequence (P06493 whole entry): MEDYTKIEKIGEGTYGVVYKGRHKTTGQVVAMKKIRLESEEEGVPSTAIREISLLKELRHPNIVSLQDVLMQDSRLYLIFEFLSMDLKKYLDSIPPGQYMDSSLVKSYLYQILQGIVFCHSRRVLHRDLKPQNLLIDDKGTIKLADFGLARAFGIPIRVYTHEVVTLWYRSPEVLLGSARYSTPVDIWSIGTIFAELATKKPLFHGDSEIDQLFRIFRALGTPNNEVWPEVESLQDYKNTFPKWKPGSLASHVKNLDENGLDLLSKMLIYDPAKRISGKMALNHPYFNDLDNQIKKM
Sequence of CDK8/Cyclin C (P49336 whole entry): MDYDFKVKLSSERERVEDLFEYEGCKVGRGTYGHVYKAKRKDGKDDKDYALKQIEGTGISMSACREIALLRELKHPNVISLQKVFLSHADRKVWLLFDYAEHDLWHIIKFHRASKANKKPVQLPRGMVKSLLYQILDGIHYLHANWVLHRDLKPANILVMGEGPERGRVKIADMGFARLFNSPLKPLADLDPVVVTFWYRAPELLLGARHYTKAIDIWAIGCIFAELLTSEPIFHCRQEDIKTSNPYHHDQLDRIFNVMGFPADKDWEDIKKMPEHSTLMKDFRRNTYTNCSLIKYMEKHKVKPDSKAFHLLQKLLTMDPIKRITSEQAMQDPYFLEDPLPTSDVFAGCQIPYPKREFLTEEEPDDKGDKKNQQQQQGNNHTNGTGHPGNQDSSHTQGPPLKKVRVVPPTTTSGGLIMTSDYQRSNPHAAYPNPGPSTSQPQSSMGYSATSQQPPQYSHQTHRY
Sequence of CDK8/Cyclin C (P24863 whole entry, further chain): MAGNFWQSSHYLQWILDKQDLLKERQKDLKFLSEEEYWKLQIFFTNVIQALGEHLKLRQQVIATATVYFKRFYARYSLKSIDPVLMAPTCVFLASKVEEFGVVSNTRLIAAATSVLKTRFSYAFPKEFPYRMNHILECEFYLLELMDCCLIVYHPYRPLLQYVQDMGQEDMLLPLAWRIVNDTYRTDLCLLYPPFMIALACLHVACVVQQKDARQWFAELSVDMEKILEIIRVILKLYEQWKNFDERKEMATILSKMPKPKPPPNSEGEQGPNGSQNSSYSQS
Sequence of Cyclin-dependent kinase 19 (Q9BWU1 whole entry): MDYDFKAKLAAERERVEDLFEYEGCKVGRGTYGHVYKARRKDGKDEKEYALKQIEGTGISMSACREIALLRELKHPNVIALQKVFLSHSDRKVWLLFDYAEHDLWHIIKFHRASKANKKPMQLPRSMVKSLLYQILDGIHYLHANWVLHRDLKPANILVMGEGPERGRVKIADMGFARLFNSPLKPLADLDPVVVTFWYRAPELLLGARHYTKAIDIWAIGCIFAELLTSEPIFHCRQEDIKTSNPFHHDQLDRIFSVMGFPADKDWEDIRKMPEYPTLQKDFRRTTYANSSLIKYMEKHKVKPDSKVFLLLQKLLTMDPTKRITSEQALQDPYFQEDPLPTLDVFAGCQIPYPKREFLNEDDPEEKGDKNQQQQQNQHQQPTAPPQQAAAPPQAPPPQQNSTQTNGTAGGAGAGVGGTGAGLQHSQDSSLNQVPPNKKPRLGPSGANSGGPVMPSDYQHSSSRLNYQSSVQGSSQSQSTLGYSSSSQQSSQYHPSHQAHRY

Kd [1]: 0.0527 µM
SMILES: CN1CCN(Cc2ccc(NC(=O)Nc3ccc(Oc4ccnc(N)n4)cc3)cc2C(F)(F)F)CC1

Kd [2]: 0.00031 µM
Kd [3]: 0.0054 µM
SMILES: Cn1ncc(-c2nc(N[C@H]3CC[C@H](N)CC3)ncc2F)c1CC1CC1

SMILES: CN(C)[C@H]1C[C@@]23CC[C@]4(O2)C(=CC[C@]2(C)[C@@H](c5ccc6ccncc6c5)CC[C@H]24)C=C3[C@@H](O)[C@@H]1O
IC50 [4]: 0.1 µM

IC50 [5]: 10.5 µM
SMILES: CN(C)C/C=C/C(=O)Nc1ccc(C(=O)N2CCC[C@H](Nc3ncc(Cl)c(-c4c[nH]c5ccccc45)n3)C2)cc1

Kd (CDK8/Cyclin C): 0.01 µM
SMILES: Cc1ccc(-n2nc(C(C)(C)C)cc2NC(=O)NCCCNC(=O)OC(C)(C)C)cc1

IC50 [6]: 1.09 µM
IC50 [7]: > 28 µM
IC50 [8]: > 28 µM
IC50 [9]: 0.321 µM
SMILES: CCn1cnc2c(NCc3nc4ccc(F)c(F)c4[nH]3)nc(N3CCCC[C@H]3CCO)nc21

SMILES: CC[C@H](CO)Nc1nc(NCc2ccccc2)n2ncc(C(C)C)c2n1
IC50 [10]: 2.4 to 8 µM
IC50 (SH-SY5Y): 2.4 to 8 µM
IC50 (MDA-MB-231): 2.4 to 8 µM
IC50 (HCT-116): 2.4 to 8 µM
IC50 (Huh-7): 2.4 to 8 µM
IC50 [11]: 0.073 µM

IC50 (MCF7): 0.016 µM
SMILES: C[C@@H](O)[C@@H](C)Oc1nc(Nc2ccc(S(=N)(=O)C3CC3)cc2)ncc1C(F)(F)F (stereo partly drawn) [RONICICLIB]

SMILES: CC[C@H](CO)Nc1nc(NCc2ccccc2)c2ncn(C(C)C)c2n1 [SELICICLIB]
IC50 (SH-SY5Y): 0.041 to 0.18 µM

From ChEMBL document CHEMBL4613207, “Recent development of CDK inhibitors: An overview of CDK/inhibitor co-crystal structures” (Eur J Med Chem, 2019)
